Source: US20060270629A1, “Methanocarba cycloalkyl nucleoside analogues” (Govt of the U.S.A., represented by the Secretary, Dept of …, priority 2000, published 2006)

What was measured:
rat A1 receptors = target: T1, rat A1 receptors (Rattus norvegicus, UniProt P25099); test: Radioligand binding at rat A1 adenosine receptors
T1 sequence (P25099 1-326): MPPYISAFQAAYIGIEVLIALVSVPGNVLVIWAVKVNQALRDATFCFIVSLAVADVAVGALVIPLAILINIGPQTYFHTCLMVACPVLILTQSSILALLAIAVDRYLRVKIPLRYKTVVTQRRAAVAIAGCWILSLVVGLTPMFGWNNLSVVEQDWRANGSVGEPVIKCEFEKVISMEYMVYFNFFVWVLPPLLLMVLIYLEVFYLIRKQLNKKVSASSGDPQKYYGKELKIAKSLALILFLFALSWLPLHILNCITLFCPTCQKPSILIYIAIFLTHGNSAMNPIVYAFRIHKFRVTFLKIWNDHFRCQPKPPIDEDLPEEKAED
Description: Bound and free ligands were separated by rapid filtration of the reaction mixture through Whatman GF/B glass filters. The filters were immediately washed with two 5 ml-portions of ice-cold 50 mM Tris.HCl buffer (pH 7.4). The radioactivity bound to the filters was determined in a Beckman gamma counter.

A2A receptors = A2A receptors (Homo sapiens, UniProt P29274); test: Radioligand binding at human A2A adenosine receptors, values marked (h); conditions: absence of ADA, read-out: K1 (nM), A2A (h)
human A2B receptor = target: T2, human A2B receptor (Homo sapiens, UniProt P29275); test: Radioligand binding at human A2B receptor using [3H]ZM 241,385; conditions: at 50 μM, absence of ADA
T2 sequence (P29275 1-332): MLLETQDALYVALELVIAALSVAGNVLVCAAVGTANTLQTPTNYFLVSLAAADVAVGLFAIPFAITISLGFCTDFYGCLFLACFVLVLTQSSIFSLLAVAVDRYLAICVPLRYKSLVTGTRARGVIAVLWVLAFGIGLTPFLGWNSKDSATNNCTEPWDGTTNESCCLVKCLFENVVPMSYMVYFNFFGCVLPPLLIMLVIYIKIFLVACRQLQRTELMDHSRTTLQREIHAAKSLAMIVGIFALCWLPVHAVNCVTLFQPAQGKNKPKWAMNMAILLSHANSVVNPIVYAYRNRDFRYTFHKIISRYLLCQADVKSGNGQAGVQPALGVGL
Description: The total volume of the reaction mixture was 125 μl. Bound and free ligands were separated by rapid filtration of the reaction mixture through Whatman GF/B glass filters. The filters were immediately washed with two 5 ml-portions of ice-cold 50 mM Tris.HCl buffer (pH 7.4). The radioactivity bound to the filters was determined in a Beckman gamma counter.

human A3 receptors = target: T3, human A3 receptors (Homo sapiens, UniProt P0DMS8); test: A3 adenosine receptor binding using [125I]AB-MECA, transfected CHO cell membranes; conditions: for Ki: human A3 receptors, absence of ADA, read-out: K1 (nM), hA3; for A1/A3: ratio of Ki at rat A1 to Ki at A3 (human, or rat where marked (r))
T3 sequence (P0DMS8 1-318): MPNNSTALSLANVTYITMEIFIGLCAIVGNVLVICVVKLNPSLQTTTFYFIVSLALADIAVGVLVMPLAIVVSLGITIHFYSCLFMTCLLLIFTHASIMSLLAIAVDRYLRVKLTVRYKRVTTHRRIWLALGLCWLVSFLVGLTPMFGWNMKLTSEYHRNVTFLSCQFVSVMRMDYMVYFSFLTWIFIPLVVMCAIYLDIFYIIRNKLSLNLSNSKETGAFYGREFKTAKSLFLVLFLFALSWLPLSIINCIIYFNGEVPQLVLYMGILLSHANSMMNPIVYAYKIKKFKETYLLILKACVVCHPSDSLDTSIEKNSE
Description: The final pellets were resuspended in 50 mM Tris.HCl buffer, pH 7.4, containing 10 mM MgCl2 and 0.1 mM EDTA and stored at -70° C. […] The total volume of the reaction mixture was 125 μl. Bound and free ligands were separated by rapid filtration of the reaction mixture through Whatman GF/B glass filters. The filters were immediately washed with two 5 ml-portions of ice-cold 50 mM Tris.HCl buffer (pH 7.4). The radioactivity bound to the filters was determined in a Beckman gamma counter.

[1] = system: adenosine deaminase (ADA); test: Deamination by adenosine deaminase (ADA); format: biochemical; conditions: for relative rates of deamination: ADA, 5a set to 100
[2] = target: human and turkey P2Y1 receptors; conditions: competitive antagonist; cited from earlier work
P2X1 receptors = target: T4, P2X1 receptors (Homo sapiens, UniProt P51575); conditions: cited from earlier work
T4 sequence (P51575 1-399): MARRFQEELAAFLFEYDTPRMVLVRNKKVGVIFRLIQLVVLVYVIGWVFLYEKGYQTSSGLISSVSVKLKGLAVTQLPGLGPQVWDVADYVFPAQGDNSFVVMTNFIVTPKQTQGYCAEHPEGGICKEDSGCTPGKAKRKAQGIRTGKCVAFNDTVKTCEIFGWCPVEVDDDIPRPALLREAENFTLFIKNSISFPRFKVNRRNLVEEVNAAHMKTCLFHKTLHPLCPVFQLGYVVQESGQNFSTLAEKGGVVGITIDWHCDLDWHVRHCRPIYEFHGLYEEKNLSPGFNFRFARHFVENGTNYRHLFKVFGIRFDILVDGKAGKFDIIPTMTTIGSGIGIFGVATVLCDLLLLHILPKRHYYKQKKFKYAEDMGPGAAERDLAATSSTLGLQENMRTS

P2Y2 = P2Y2 (Homo sapiens, UniProt P41231); conditions: cited from earlier work
P2Y4 = P2Y4 (Homo sapiens, UniProt P51582); conditions: cited from earlier work
P2Y6 = P2Y6 (Homo sapiens, UniProt Q15077); conditions: cited from earlier work
[3] = target: T5, adenylyl cyclase-linked P2Y receptor in C6 glioma cells (Rattus norvegicus, UniProt Q9EPX4); conditions: cited from earlier work
T5 construct: at the adenylyl cyclase-linked P2Y receptor in C6 glioma cells; host or cells: C6 glioma cells (endogenous receptor)

[4] = system: novel avian P2Y receptor that inhibits adenylyl cyclase; conditions: cited from earlier work

Sequence of A2A receptors (P29274 whole entry): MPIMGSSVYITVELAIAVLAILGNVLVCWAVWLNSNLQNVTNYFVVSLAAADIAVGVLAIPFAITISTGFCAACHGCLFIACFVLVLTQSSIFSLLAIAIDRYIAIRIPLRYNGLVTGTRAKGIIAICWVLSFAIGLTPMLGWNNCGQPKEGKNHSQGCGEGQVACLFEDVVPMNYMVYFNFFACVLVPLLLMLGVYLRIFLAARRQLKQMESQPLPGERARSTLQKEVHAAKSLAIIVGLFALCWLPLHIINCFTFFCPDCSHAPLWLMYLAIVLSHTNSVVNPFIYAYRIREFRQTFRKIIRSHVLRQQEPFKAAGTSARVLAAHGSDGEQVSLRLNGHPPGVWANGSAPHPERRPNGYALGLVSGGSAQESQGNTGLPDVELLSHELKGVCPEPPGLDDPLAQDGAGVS
Sequence of P2Y6 (Q15077 whole entry, species assumed): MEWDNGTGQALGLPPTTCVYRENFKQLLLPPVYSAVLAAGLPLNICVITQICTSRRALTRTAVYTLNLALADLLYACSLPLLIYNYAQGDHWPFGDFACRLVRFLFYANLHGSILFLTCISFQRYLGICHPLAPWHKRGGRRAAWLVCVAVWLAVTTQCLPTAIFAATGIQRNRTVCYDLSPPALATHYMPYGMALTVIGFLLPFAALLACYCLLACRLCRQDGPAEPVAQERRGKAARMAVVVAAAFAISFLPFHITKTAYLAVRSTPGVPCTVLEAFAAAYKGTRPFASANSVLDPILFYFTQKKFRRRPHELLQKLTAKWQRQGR
T5 sequence (Q9EPX4 whole entry): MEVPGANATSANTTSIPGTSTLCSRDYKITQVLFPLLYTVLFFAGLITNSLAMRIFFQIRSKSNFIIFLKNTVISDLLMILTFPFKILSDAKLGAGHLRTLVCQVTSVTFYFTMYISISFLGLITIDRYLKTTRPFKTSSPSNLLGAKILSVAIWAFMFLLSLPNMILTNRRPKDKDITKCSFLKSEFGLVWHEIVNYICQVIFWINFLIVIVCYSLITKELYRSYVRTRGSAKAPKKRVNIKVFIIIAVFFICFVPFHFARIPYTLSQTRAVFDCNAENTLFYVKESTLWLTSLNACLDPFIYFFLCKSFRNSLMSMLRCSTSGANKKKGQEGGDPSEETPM
Sequence of P2Y4 (P51582 whole entry, species assumed): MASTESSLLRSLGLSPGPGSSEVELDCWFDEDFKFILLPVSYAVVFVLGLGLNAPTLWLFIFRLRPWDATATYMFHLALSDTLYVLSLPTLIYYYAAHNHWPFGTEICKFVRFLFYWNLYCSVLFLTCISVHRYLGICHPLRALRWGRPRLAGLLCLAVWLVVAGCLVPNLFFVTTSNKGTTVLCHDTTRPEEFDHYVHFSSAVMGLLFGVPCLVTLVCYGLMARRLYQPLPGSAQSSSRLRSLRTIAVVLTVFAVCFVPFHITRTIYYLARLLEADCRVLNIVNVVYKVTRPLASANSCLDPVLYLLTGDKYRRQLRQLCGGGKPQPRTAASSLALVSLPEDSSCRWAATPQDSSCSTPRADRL
Sequence of P2Y2 (P41231 whole entry, species assumed): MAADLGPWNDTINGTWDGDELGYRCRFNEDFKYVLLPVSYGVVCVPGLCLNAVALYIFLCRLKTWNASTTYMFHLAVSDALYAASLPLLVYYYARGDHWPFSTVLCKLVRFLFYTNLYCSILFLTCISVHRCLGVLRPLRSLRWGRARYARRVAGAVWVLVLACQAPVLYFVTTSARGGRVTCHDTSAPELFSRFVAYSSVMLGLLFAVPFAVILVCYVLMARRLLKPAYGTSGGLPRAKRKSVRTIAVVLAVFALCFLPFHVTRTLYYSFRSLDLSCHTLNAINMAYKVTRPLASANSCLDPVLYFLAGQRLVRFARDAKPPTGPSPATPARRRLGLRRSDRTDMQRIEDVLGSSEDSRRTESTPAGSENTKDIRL

| SMILES | % displacement, rA1 (rat A1 receptors; rat A1 receptors, at 100 μM) | Ki (A2A receptors) | % displacement, hA2B (human A2B receptor) | Ki (human A3 receptors) | A1/A3 (human A3 receptors) | substrate of ADA, fold less ([1]; 5d compared with 5c) | relative rates of deamination [1] | Kb [2] | EC50 (P2X1 receptors) | activity at P2Y2 (P2Y2) | activity at P2Y4 (P2Y4) | activity at P2Y6 (P2Y6) | activity at adenylyl cyclase-linked P2Y receptor in C6 glioma cells [3] | activity at novel avian P2Y receptor [4] | Ki (rat A1 receptors; rat A1 receptors, read-out: K1 (nM), rA1) | fold more potent than aristeromycin, 5b, in binding to A1 (rat A1 receptors; versus 5b) | ratio of affinities of N- to S-analogues at the A3 receptor (human A3 receptors; 5c versus 5d, human A3 receptor) | fold more potent than aristeromycin, 5b, in binding to A3 (human A3 receptors; versus 5b) |
| --- | --- | --- | --- | --- | --- | --- | --- | --- | --- | --- | --- | --- | --- | --- | --- | --- | --- | --- |
| Nc1ncnc2c1ncn2C12CC1C(CO)C(O)C2O (racemic) [Compound 5d] | 15% at 100 μM | > 100000 nM | 20 ± 4% at 50 μM^f | 62500 nM | >1 | 100 fold | 0.010 | – | – | – | – | – | – | – | – | – | – | – |
| CNc1ncnc2c1ncn2[C@H]1C[C@H](OP(=O)(O)O)[C@@H](COP(=O)(O)O)O1 [Compound 1a, N6-methyl-2′-deoxyadenosine-3′,5′-bisphosphate] | – | – | – | – | – | – | – | ~100 nM | 1200 nM | inactive | inactive | inactive | inactive | inactive | – | – | – | – |
| Nc1ncnc2c1ncn2C1C(O)C(O)C2(CO)CC12 (centres unmarked) [Compound 5c, 4-(6-amino-purin-9-yl)-1-hydroxymethyl-bicyclo[3.1.0]hexane-2,3-diol] | – | 22500 nM | 35 ± 2% at 50 μM^f | 404 ± 70 nM | 4.2 | – | 0.58 | – | – | – | – | – | – | – | 1680 ± 80 nM | 4 fold | 150 fold | 4500 fold |
